Data as given in patent publication US11390646B2, “Structure-based peptide inhibitors of α-synuclein aggregation” (The Regents of the University of California, priority 2016, dated 2022).
“And” between values parts separate entries of the source, which are not always exact repeats. Equal entries are not always repeated. “Also recorded” adds a separate entry of the source. Ends that are not written are not given here.

How the values were obtained:
PC12 cells = details: literature reference 20; cited from earlier work
[1] = molecular target: T1, α-syn seeded by PD tissue-extracted filaments (Homo sapiens, UniProt P37840); assay: ThT assay of α-syn aggregation seeded by PD brain tissue-extracted filaments; assay type: biochemical; details: filaments from 4 different subjects (seeds A-D)
T1 construct: Full length α-syn was purified according to published protocols; made in house; host or cells: E. coli BL21 (DE3) gold
Source text: We extracted insoluble protein aggregates from frozen autopsy PD brain tissues. We obtained tissues from 4 different subjects including the substantia nigra and frontal regions of one subject and temporal and frontal regions of other subjects. Using previously described protocols (Goedert et al. (1992) Neuron 8(1):159-168) that included precipitation with the ionic detergent sarkosyl, we extracted insoluble protein aggregates (FIG. 4A). All samples robustly seeded α-syn aggregation in vitro and in our cell culture model. In vitro addition of 2% seeds increased the ThT fluorescence 4 to 10 fold (FIG. 4B, 4C, 4D) along with a small decrease in the lag time. The seeded samples were then transfected in HEK cells. Consistent with the ThT assay, all seeded samples induced rapid puncta formation (FIG. 4E, 4F, 4G). Thus, fibrils extracted from PD brain tissues seeds recombinant protein, and the aggregates formed upon seeding induce rapid puncta formation in cell culture.
(§1) We tested the effect of the different inhibitors in preventing α-syn aggregation in the presence of PD extracted seeds. […] Next we tested the seeding potency of the α-syn aggregates formed in the presence of PD seeds and the different inhibitors (FIG. 6A).
Fibril formation assays were performed with 50 μM protein concentration in conditions identical to those used for aggregating proteins for seeding assay, but with the addition of ThT. All assays were carried out in black Nunc 96-well optical bottom plates (Thermo Scientific). Plates were agitated at 600 rpm in 3-mm rotation diameter in a Varioskan microplate reader (Thermo) at 37° C. Fluorescence measurements were recorded every 30 mins using λex=444 nm, λcm=482 nm, with an integration time of 200 μs.
Human frozen brain tissues were obtained from UCLA Brain Tumor Translational Resource (BTTR). Sarkosyl insoluble protein was extracted using previously described protocols. Briefly, frozen tissue was homogenized in ice cold PBS using a dounce homogenizer at 200 mg/mL. […]

[2] = system: HEK293T cells expressing YFP-labeled A53T α-syn; assay: Cell culture seeding assay: α-syn aggregated in the presence of inhibitors, mixture transfected, puncta counted; assay type: cell-based, human; details: for seeding competence of α-syn aggregated in presence of peptide (particles/puncta per well): 50 μM α-syn aggregated with 10, 5, 2, 1 fold excess (S71: equimolar and sub-stoichiometric), monitored up to 3 days
Source text: (§2) We tested the efficacy of the inhibitors in preventing aggregation in a cell culture model. For these assays, we utilized two HEK293T cells that stably express YFP-labeled full-length WT α-syn and A53T α-syn (Sanders D W, et al. (2014) Neuron 82(6):1271-1288). In this model, lipofectamine-mediated transfection of recombinant fibrils leads to aggregation of the endogenous YFP-labeled protein that are seen as fluorescent puncta. Additionally, these puncta increase in size and number over time. This proliferation of aggregates over time is indicative of a ‘seeding’ phenomenon whereby a small amount of amyloid fibrils induces aggregation of the endogenous protein. First we tested the parent peptide segment, NACore to check its effect on seeding. α-syn was aggregated in the presence of molar excess of NACore (FIG. 2B). The mixture was transfected in cells and puncta formation was visualized and the number of puncta were counted as particles per well. […] Next we aggregated 50 μM α-syn in the presence of 500 μM, 250 μM, 100 μM and 50 μM inhibitor corresponding to 10, 5, 2 and 1 fold excess. The mixture was then transfected in cells and aggregation was monitored over time for up to 3 days by fluorescence imaging (FIG. 2A).
(§3) HEK293T cells that stably express YFP labeled WT α-syn and A53T α-syn were a generous gift from Dr. Marc Diamond. Cells were grown in Dulbecco's modified Eagle's medium (Gibco) supplemented with 10% fetal bovine serum (HyClone), 1% penicillin/streptomycin (Gibco), and 1% glutamax (Gibco) in a humidified incubator in 37° C., 5% CO2.
(§4) 10,000 cells in 90 μL media were plated in 96 well black wall plate (Cat #3660) and allowed to adhere overnight. α-syn was transfected at a final monomer concentration of 125 nM. Lipofectamine 2000 was diluted in OptiMEM media (2.5+17.5 μL) and incubated at room temperature for 5 mins. Protein aggregates were diluted in OptiMEM media (1:20) and sonicated in a water bath sonicator for 3 mins at low pulse. Diluted lipofectamine and protein samples were then mixed 1:1 and incubated at room temperature for 20 mins and thereafter 10 μL was added to each well. All samples are added in triplicates and experiments were repeated a minimum of two times. For co-transfection of α-syn fibrils with inhibitors, the fibrils and inhibitors were diluted in OptiMEM and incubated for 3 hours followed by sonication.
(§5) Puncta formation and cell growth was measured using Celigo Imaging Cell Cytometer allowing for unbiased measurement. Wells were imaged using fluorescent GFP channel and confluence was measured using Celigo analysis software. Images of entire well were taken and particles counted by ImageJ by particle analysis. Same settings were used to analyze wells of one plate at all days. Total particles counted in each well were normalized against the confluence and reported as particles per well.

[3] = system: HEK293T cells expressing YFP-labeled WT α-syn; assay: as above; assay type: cell-based, human; details: for seeding competence of α-syn aggregated in presence of peptide (particles/puncta per well): 50 μM α-syn aggregated with 10, 5, 2, 1 fold excess (S71: equimolar and sub-stoichiometric), monitored up to 3 days
Source text: as §2, §3, §4, §5

[4] = system: HEK293T cells expressing YFP-labeled A53T α-syn; assay: Cell culture seeding assay: recombinant α-syn fibrils co-transfected with inhibitors; assay type: cell-based, human; details: for seeding capacity of α-syn fibrils co-transfected with peptide (particles per well normalized to buffer): 125 nM recombinant α-syn fibrils; for concentrations at which seeding was reduced: 125 nM α-syn fibrils co-transfected
Description: (§6) We tested the efficacy of the inhibitors to prevent seeding in the cell culture model (FIG. 3A). We transfected the α-syn fibrils along with the different inhibitors. […] S62 was effective at concentrations of 12.5 μM and 6.25 μM in both cell lines (FIG. 3E). S71 was effective at low concentrations of 1.25 μM.
as §3, §4, §5

[5] = system: HEK293T cells expressing YFP-labeled WT α-syn; assay: as above; assay type: cell-based, human; details: for seeding capacity of α-syn fibrils co-transfected with peptide (particles per well normalized to buffer): 125 nM recombinant α-syn fibrils; for concentrations at which seeding was reduced: 125 nM α-syn fibrils co-transfected
Description: as §6, §3, §4, §5

[6] = system: WT α-syn expressing HEK cells; assay: Seeding potency in cells of α-syn aggregates formed in the presence of PD seeds and inhibitors; assay type: cell-based, human; details: three different PD brain extracted seeds
Source text: as §1
(§7) Human frozen brain tissues were obtained from UCLA Brain Tumor Translational Resource (BTTR). Sarkosyl insoluble protein was extracted using previously described protocols. Briefly, frozen tissue was homogenized in ice cold PBS using a dounce homogenizer at 200 mg/mL. The homogenate was then diluted in buffer A (10 mM Tris 7.4, 800 mM NaCl, 1 mM EGTA, 10% Sucrose) to 50 mg/mL in total volume of 1 mL and centrifuged at 20,700 g for 20 min at 4° C. The supernatant was collected in an ultracentrifuge tube and pellet was resuspended in 0.5 mL buffer A followed by centrifugation at 20,700 g for 20 mins at 4° C. The supernatants pooled together. 150 μl 10% sarkosyl (w/v) in Millipore water was then added and incubated for 1 h at room temperature on flat rotating shaker at 700 rpm. The solution was then centrifuged at 100,000 g for 1 h at 4° C. using SW 55 Rotor (Beckman Coulter). The supernatanat was discarded and pellet was washed with 5 mL Buffer A and centrifuged at 100,000 g for 20 mins at 4° C. The pellet was resuspended in 100 μl 50 mM Tris Ph 7.4
as §4, §5

[7] = system: A53T α-syn expressing HEK cells; assay: as above; assay type: cell-based, human; details: three different PD brain extracted seeds
Source text: as §1, §7, §4, §5

WT YFP-α-syn HEK cells = assay: PD filament seeded α-syn fibrils transfected along with inhibitors; assay type: cell-based, human; details: two different PD filaments; for seeding by PD filament seeded α-syn fibrils (puncta formation): fluorescence measured up to 6 days
Description: We tested the efficacy of the inhibitors in preventing seeding by PD fibrils in cell culture. α-syn aggregates formed in the presence of PD fibrils were transfected in WT HEK cells along with the different inhibitors (FIG. 7A).
as §7
10,000 cells in 90 μL media were plated in 96 well black wall plate (Cat #3660) and allowed to adhere overnight. α-syn was transfected at a final monomer concentration of 125 nM. Lipofectamine 2000 was diluted in OptiMEM media (2.5+17.5 μL) and incubated at room temperature for 5 mins. […]
as §5, with “Same settings were used to analyze wells of one plate at all days.” left out

[8] = α-syn aggregated in presence of inhibitor

Substance	toxicity compared with NACore (PC12 cells)	inhibition of α-syn aggregation seeded by PD extracted seeds (ThT fluorescence) [1]	seeding competence of α-syn aggregated in presence of peptide (particles/puncta per well) [2]	seeding competence of α-syn aggregated in presence of peptide (particles/puncta per well) [3]	seeding capacity of α-syn fibrils co-transfected with peptide (particles per well normalized to buffer) [4]	concentrations at which seeding was reduced [4]	seeding capacity of α-syn fibrils co-transfected with peptide (particles per well normalized to buffer) [5]	concentrations at which seeding was reduced [5]	seeding potency of α-syn aggregates formed in presence of PD seeds and inhibitor (puncta formation) [6]	seeding potency of α-syn aggregates formed in presence of PD seeds and inhibitor (puncta formation) [7]	duration of reduction in seeding [2, 8]	duration of reduction in seeding [3, 8]	seeding by PD filament seeded α-syn fibrils (puncta formation) (WT YFP-α-syn HEK cells)	duration of reduction of seeding ([5]; single administration, co-transfection)	concentrations at which seeding by PD filament seeded fibrils was prevented/reduced (WT YFP-α-syn HEK cells) [µM]
AVVTGVTAV [SubNACore, AVVTGVTAV]	not as toxic														
GAVVWGVTAVKKGRKKRRQRRRPQ (TAT tag) [Inhibitor S62]		effective against all seeds that were tested; also recorded: efficacy against all seeds	not seeding competent; also recorded: seeding incompetent	not seeding competent; also recorded: seeding incompetent	reduce seeding capacity; also recorded: effective	12.5 µM and 6.25 µM	reduce seeding capacity; also recorded: effective	12.5 µM and 6.25 µM							
GAVVWGVTAVKKKKK (C-terminal poly-lysine tag) [Inhibitor S37, W mutation at Thr72 and poly-lysine tag at the C-terminus]		marginal reduction in ThT fluorescence	not seeding competent; also recorded: significant reduction in seeding	not seeding competent; also recorded: significant reduction in seeding	reduce seeding capacity; also recorded: significant reduction in seeding	12.5 µM and 6.25 µM	reduce seeding capacity; also recorded: significant reduction in seeding	12.5 µM and 6.25 µM	not effective in reducing the seeding potency of aggregates	not effective in reducing the seeding potency of aggregates	up to 2 days	up to 2 days	prevented seeding; also recorded: prevented puncta formation	up to 2 days	
YGRKKRRQRRRAVVT{N-me-Gly}VTAVAE [Inhibitor S71]		effective against seeds B and D; also recorded: efficacy against all seeds	not seeding competent; also recorded: reduce the seeding potency of the aggregates	not seeding competent; also recorded: reduce the seeding potency of the aggregates	reduce seeding capacity; also recorded: effective	1.25 µM	reduce seeding capacity; also recorded: effective	1.25 µM	effective against all three seeds; also recorded: did not induce puncta formation	effective against all three seeds; also recorded: did not induce puncta formation			reduced seeding; also recorded: prevented seeding		6.25
